Source: ChEMBL document CHEMBL4184279, “Synthesis, antimicrobial activity and acid dissociation constants of methyl 5,5-diphenyl-1-(thiazol-2-yl)pyrrolidine-2-carboxylate derivatives” (Bioorg Med Chem Lett, 2018)
Converted amounts (≈) assume the structure as drawn.

Key:
Staphylococcus aureus = assay: Antibacterial activity against Staphylococcus aureus ATCC 25925; assay type: functional
Bacillus spizizenii = assay: Antibacterial activity against Bacillus subtilis ATCC 6633; assay type: functional
Aeromonas hydrophila = assay: Antibacterial activity against Aeromonas hydrophila ATCC 95080; assay type: functional
Escherichia coli = assay: Antibacterial activity against Escherichia coli; assay type: functional
Acinetobacter baumannii = assay: Antibacterial activity against Acinetobacter baumannii ATCC 02026; assay type: functional
Nakaseomyces glabratus = assay: Antifungal activity against Candida glabrata ATCC 90030 after 48 hrs by microdilution broth method; assay type: functional; conditions: ATCC 90030, 48 h
Candida tropicalis = assay: Antifungal activity against Candida tropicalis ATCC 750 after 48 hrs by microdilution broth method; assay type: functional; conditions: ATCC 750, 48 h
Candida parapsilosis = assay: Antifungal activity against Candida parapsilosis ATCC 22019 after 48 hrs by microdilution broth method; assay type: functional; conditions: Lodderomyces parapsilosis, ATCC 22019, 48 h
[1] = tested on: Mycobacterium tuberculosis; assay: Antimycobacterial activity against Mycobacterium tuberculosis H37Rv after 7 days by REMA; assay type: functional; conditions: 168 h
[2] = Acid dissociation constant, pKa for NH group of the compound in DMSO-water mixture at 25 +/- 0.1 degC by potentiometric method; assay type: physicochemical
[3] = Acid dissociation constant, pKa for SH group of the compound in DMSO-water mixture at 25 +/- 0.1 degC by potentiometric method; assay type: physicochemical
[4] = Acid dissociation constant, pKa for OH group of the compound in DMSO-water mixture at 25 +/- 0.1 degC by potentiometric method; assay type: physicochemical

Structure (SMILES)	MIC (Staphylococcus aureus) [µg/mL]	MIC (Bacillus spizizenii) [µg/mL]	MIC (Aeromonas hydrophila) [µg/mL]	MIC (Escherichia coli) [µg/mL]	MIC (Acinetobacter baumannii) [µg/mL]	MIC (Nakaseomyces glabratus) [µg/mL]	MIC (Candida tropicalis) [µg/mL]	MIC (Candida parapsilosis) [µg/mL]	MIC [1] [µg/mL]	pKa [2]	pKa [3]	pKa [4]
COC(=O)[C@H]1[C@@H](C(=O)OC)C(c2ccccc2)(c2ccccc2)N(c2nc(-c3ccccc3)c(C(=O)c3ccc(Br)cc3)s2)[C@H]1C(=O)OC	125 (≈ 169 µM)	62.5 (≈ 84.5 µM)	62.5 (≈ 84.5 µM)	125 (≈ 169 µM)	62.5 (≈ 84.5 µM)	31.2 (≈ 42.3 µM)	125 (≈ 169 µM)	125 (≈ 169 µM)	3.91 (≈ 5.29 µM)	3.27	6.02	9.23
COC(=O)[C@H]1C[C@@H](C(=O)OC)C(c2ccccc2)(c2ccccc2)N1c1nc(-c2ccccc2)c(C(=O)c2ccc(C#N)cc2)s1	125 (≈ 199 µM)	250 (≈ 398 µM)	250 (≈ 398 µM)	125 (≈ 199 µM)	250 (≈ 398 µM)	31.2 (≈ 49.8 µM)	62.5 (≈ 99.6 µM)	62.5 (≈ 99.6 µM)	15.6 (≈ 24.9 µM)	3.78	5.61	8.67
COC(=O)[C@H]1C[C@@H](C(=O)OC)C(c2ccccc2)(c2ccccc2)N1c1nc(-c2ccccc2)c(C(=O)c2ccc(OC)cc2)s1	250 (≈ 395 µM)	250 (≈ 395 µM)	125 (≈ 198 µM)	250 (≈ 395 µM)	250 (≈ 395 µM)	62.5 (≈ 98.8 µM)	62.5 (≈ 98.8 µM)	125 (≈ 198 µM)	15.6 (≈ 24.7 µM)	2.46	6.31	10
COC(=O)[C@H]1C[C@@H](S(=O)(=O)c2ccccc2)C(c2ccccc2)(c2ccccc2)N1c1nc(-c2ccccc2)c(C(=O)c2ccc(F)cc2)s1	125 (≈ 178 µM)	62.5 (≈ 88.9 µM)	62.5 (≈ 88.9 µM)	125 (≈ 178 µM)	62.5 (≈ 88.9 µM)	31.2 (≈ 44.5 µM)	62.5 (≈ 88.9 µM)	62.5 (≈ 88.9 µM)	1.96 (≈ 2.79 µM)	3.4	5.84	8.73
COC(=O)[C@H]1C[C@@H](S(=O)(=O)c2ccccc2)C(c2ccccc2)(c2ccccc2)N1c1nc(-c2ccccc2)c(C(=O)c2ccc(C#N)cc2)s1	125 (≈ 176 µM)	62.5 (≈ 88 µM)	62.5 (≈ 88 µM)	125 (≈ 176 µM)	62.5 (≈ 88 µM)	31.2 (≈ 44 µM)	62.5 (≈ 88 µM)	62.5 (≈ 88 µM)	3.91 (≈ 5.51 µM)	3.56	5.78	8.83
COC(=O)[C@H]1[C@@H](C(=O)OC)C(c2ccccc2)(c2ccccc2)N(c2nc(-c3ccccc3)c(C(=O)c3ccc(C#N)cc3)s2)[C@H]1C(=O)OC	125 (≈ 182 µM)	62.5 (≈ 91.1 µM)	62.5 (≈ 91.1 µM)	125 (≈ 182 µM)	62.5 (≈ 91.1 µM)	31.2 (≈ 45.6 µM)	62.5 (≈ 91.1 µM)	31.2 (≈ 45.6 µM)	7.81 (≈ 11.4 µM)	3.53	5.66	8.9
COC(=O)[C@H]1C[C@@H](C(=O)OC)C(c2ccccc2)(c2ccccc2)N1c1nc(-c2ccccc2)c(C(=O)c2ccc(Br)cc2)s1	250 (≈ 367 µM)	250 (≈ 367 µM)	250 (≈ 367 µM)	250 (≈ 367 µM)	125 (≈ 183 µM)	62.5 (≈ 91.7 µM)	62.5 (≈ 91.7 µM)	31.2 (≈ 45.8 µM)	7.81 (≈ 11.5 µM)	3.11	5.99	9.91
COC(=O)[C@H]1[C@@H](C(=O)OC)C(c2ccccc2)(c2ccccc2)N(c2nc(-c3ccccc3)c(C(=O)c3ccc(OC)cc3)s2)[C@H]1C(=O)OC	125 (≈ 181 µM)	125 (≈ 181 µM)	62.5 (≈ 90.5 µM)	250 (≈ 362 µM)	62.5 (≈ 90.5 µM)	31.2 (≈ 45.2 µM)	62.5 (≈ 90.5 µM)	62.5 (≈ 90.5 µM)	15.6 (≈ 22.6 µM)	2.83	6.77	10.2
COC(=O)[C@H]1C[C@@H](C(=O)OC)C(c2ccccc2)(c2ccccc2)N1c1nc(-c2ccccc2)c(C(=O)c2ccc(F)cc2)s1	125 (≈ 201 µM)	250 (≈ 403 µM)	125 (≈ 201 µM)	125 (≈ 201 µM)	250 (≈ 403 µM)	62.5 (≈ 101 µM)	62.5 (≈ 101 µM)	62.5 (≈ 101 µM)	15.6 (≈ 25.2 µM)	2.63	6.09	9.69
COC(=O)[C@H]1C[C@@H](S(=O)(=O)c2ccccc2)C(c2ccccc2)(c2ccccc2)N1c1nc(-c2ccccc2)c(C(=O)c2ccccc2)s1	125 (≈ 183 µM)	62.5 (≈ 91.3 µM)	62.5 (≈ 91.3 µM)	125 (≈ 183 µM)	31.2 (≈ 45.6 µM)	31.2 (≈ 45.6 µM)	31.2 (≈ 45.6 µM)	62.5 (≈ 91.3 µM)	3.91 (≈ 5.71 µM)	3.26	5.9	8.64
COC(=O)[C@H]1C[C@@H](S(=O)(=O)c2ccccc2)C(c2ccccc2)(c2ccccc2)N1c1nc(-c2ccccc2)c(C(=O)c2ccc(OC)cc2)s1	125 (≈ 175 µM)	62.5 (≈ 87.4 µM)	62.5 (≈ 87.4 µM)	125 (≈ 175 µM)	62.5 (≈ 87.4 µM)	31.2 (≈ 43.7 µM)	62.5 (≈ 87.4 µM)	62.5 (≈ 87.4 µM)	3.91 (≈ 5.47 µM)	3.35	6.01	9.28
COC(=O)[C@H]1[C@@H](C(=O)OC)C(c2ccccc2)(c2ccccc2)N(c2nc(-c3ccccc3)c(C(=O)c3ccccc3)s2)[C@H]1C(=O)OC	125 (≈ 189 µM)	62.5 (≈ 94.6 µM)	62.5 (≈ 94.6 µM)	125 (≈ 189 µM)	62.5 (≈ 94.6 µM)	31.2 (≈ 47.3 µM)	62.5 (≈ 94.6 µM)	62.5 (≈ 94.6 µM)	15.6 (≈ 23.6 µM)	3.35	5.81	8.5
COC(=O)[C@H]1[C@@H](C(=O)OC)C(c2ccccc2)(c2ccccc2)N(c2nc(-c3ccccc3)c(C(=O)c3ccc(F)cc3)s2)[C@H]1C(=O)OC	125 (≈ 184 µM)	62.5 (≈ 92.1 µM)	62.5 (≈ 92.1 µM)	125 (≈ 184 µM)	62.5 (≈ 92.1 µM)	31.2 (≈ 46 µM)	62.5 (≈ 92.1 µM)	62.5 (≈ 92.1 µM)	15.6 (≈ 23 µM)	2.73	6.37	10.2
COC(=O)[C@H]1C[C@@H](S(=O)(=O)c2ccccc2)C(c2ccccc2)(c2ccccc2)N1c1nc(-c2ccccc2)c(C(=O)c2ccc(Br)cc2)s1	125 (≈ 164 µM)	62.5 (≈ 81.8 µM)	62.5 (≈ 81.8 µM)	125 (≈ 164 µM)	31.2 (≈ 40.9 µM)	31.2 (≈ 40.9 µM)	62.5 (≈ 81.8 µM)	62.5 (≈ 81.8 µM)	0.98 (≈ 1.28 µM)	2.97	5.99	9.53
CC1(C)S[C@@H]2[C@H](NC(=O)[C@H](N)c3ccccc3)C(=O)N2[C@H]1C(=O)O [AMPICILLIN]	31.2 (≈ 89.4 µM)	0.98 (≈ 2.8 µM)	31.2 (≈ 89.4 µM)	15.6 (≈ 44.7 µM)	125 (≈ 358 µM)							
CC[C@@H](CO)NCCN[C@@H](CC)CO [ETHAMBUTOL]									1.96 (≈ 9.59 µM)			
OC(Cn1cncn1)(Cn1cncn1)c1ccc(F)cc1F [FLUCONAZOLE]						3.9 (≈ 12.7 µM)	15.6 (≈ 51 µM)	3.9 (≈ 12.7 µM)				
NNC(=O)c1ccncc1 [ISONIAZID]									0.98 (≈ 7.15 µM)			
